Measurements as given in patent US9521846B2, “Template-fixed peptidomimetics with antimicrobial activity” (priority 2006, dated 2016).
In brackets after ≈: the same amount, converted by molar mass. Non-standard residues stand in square brackets, D forms with d. Residues, ends and D or L forms follow the SMILES beside them. Cha = N[C@@H](CC1CCCCC1)C(=O)O; Dab = NCC[C@H](N)C(=O)O

What was measured:
HELA cells (Acc57) = assay: Cytotoxicity assay, MTT reduction (LC 50, GI 50); format: cell-based
Experimental: The cytotoxicity of the peptides to HELA cells (Acc57) and COS-7 cells (CRL-1651) was determined using the MIT reduction assay [see ref. 2 and 3, below]. Briefly the method was as follows: HELA cells and COS-7 cells were seeded at 7.0×10^3 and, respectively, 4.5×10^3 cells per well and grown in 96-well […] plates for 24 hours at 37° C. at 5% CO2. At this point, time zero (Tz) was determined by MTT reduction (see below). The supernatant of the remaining wells was discarded, and fresh medium and the peptides in serial dilutions of 12.5, 25 and 50 μM were dispensed into the wells. Each peptide concentration was assayed in triplicate. Incubation of the cells was continued for 48 hours at 37° C. at 5% CO2. Wells were then washed once with phosphate buffered saline (PBS) and subsequently 100 μl MIT reagent (0.5 mg/ml in medium RPMI1640 and, respectively, DMEM) were added to the wells. This was incubated at 37° C. for 2 hours and subsequently the medium was aspirated and 100 μl isopropanol were added to each well. The absorbance at 595 nm of the solubilized product was measured (OD595peptide). For each concentration averages were calculated from triplicates. The percentage of growth was calculated as follows: (OD595peptide-OD595Tz-OD595Empty well)/(OD595Tz-OD595Empty well)×100% and was plotted for each peptide concentration.
The LC 50 values (Lethal Concentration, defined as the concentration that kills 50% of the cells) were determined for each peptide by using the trend line function of EXCEL (Microsoft Office 2000) for the concentrations (50, 25, 12.5 and 0 μM), the corresponding growth percentages and the value −50, (=TREND(C50:C0,%50:%0,−50)). The GI 50 (Growth Inhibition) concentrations were calculated for each peptide by using a trend line function for the concentrations (50, 25, 12.5 and 0 […]), the corresponding percentages and the value 50, (=TREND (C50:C0,%50:%0,50).

[1] = tested on: Pseudomonas aeruginosa P1021903; format: cell-based; details: P1021903
Experimental: (§1) The selective antimicrobial activities of the peptides were determined in 96-well plates (Nunclon polystyrene) by the standard NCCLS broth microdilution method (see ref 1, below) with slight modifications. Innocula of the microorganisms were diluted into Mueller-Hinton (MH) broth+0.02% BSA and compared with a 0.5 Mcfarland standard to give appr. 10^6 colony forming units (CFU)/ml. Aliquots (50 μl) of inoculate were added to 50 μl of MH broth+0.02% BSA containing the peptide in serial two-fold dilutions. The following microorganisms were used to determine antibiotic selectivity of the peptides: Escherichia coli (ATCC 25922), Pseudomonas aeruginosa (P. aeruginosa ATCC 27853, P8191900, P1021903, P1021913, IMP 1 Livermore 3140).

[2] = tested on: Pseudomonas aeruginosa P1021913; format: cell-based; details: P1021913
Experimental: as §1

[3] = tested on: Pseudomonas aeruginosa IMP 1 Livermore 3140; format: cell-based; details: IMP 1 Livermore 3140
Experimental: as §1

[4] = tested on: Pseudomonas aeruginosa P8191900; format: cell-based; details: P8191900
Experimental: as §1

P. aeruginosa ATCC 27853 = format: cell-based, Pseudomonas aeruginosa; details: ATCC 27853
Experimental: as §1

[5] = tested on: human red blood cells (hRBC); assay: Hemolysis; format: cell-based; details: 100
Experimental: Hemolysis of red blood cells is often employed for assessment of toxicity of related compounds such as protegrin or tachyplesin. Values are given as %-lysis of red blood cells observed at a concentration of 100 μg/ml. Typical values determined for cationic peptides such as protegrin and tachyplesin range between 30-40% with average MIC-values of 1-5 μg/ml over a wide range of pathogens.
The peptides were tested for their hemolytic activity against human red blood cells (hRBC). Fresh hRBC were washed three times with phosphate buffered saline (PBS) by centrifugation for 10 min at 2000×g. Peptides at a concentration of 100 μM were incubated with 20% v/v hRBC for 1 hour at 37° C. The final erythrocyte concentration was approximately 0.9×10^9 cells per ml. A value of 0% and, respectively, 100% cell lysis was determined by incubation of the hRBC in the presence of PBS alone and, respectively, 0.1% Triton X-100 in H2O. The samples were centrifuged, the supernatant was 20-fold diluted in PBS buffer and the optical density (OD) of the sample at […] was measured. The 100% lysis value (OD540H20) gave an OD540 of approximately 1.3-1.8. Percent hemolysis was calculated as follows: (OD540peptide/OD540H20)×100%.

SMILES	Average MIC (P. aeruginosa)	Cytotoxicity GI50 Hela cells (HELA cells (Acc57))	MIC P. aeruginosa P1021903 [1]	MIC P. aeruginosa P1021913 [2]	MIC P. aeruginosa IMP1 Livermore 3140 [3]	MIC P. aeruginosa P8191900 [4]	MIC P. aeruginosa ATCC 27853 (P. aeruginosa ATCC 27853)	Hemolysis at 100 μg/ml [5]
CC[C@H](C)[C@@H]1NC(=O)[C@H](Cc2c[nH]c3ccccc23)NC(=O)[C@H]([C@@H](C)O)NC(=O)[C@@H]2CCCN2C(=O)[C@H]2CCCN2C(=O)[C@H](CCN)NC(=O)[C@H](CC2CCCCC2)NC(=O)[C@H](CCN)NC(=O)[C@H](CCN)NC(=O)[C@H](Cc2c[nH]c3ccccc23)NC(=O)[C@H](CCN)NC(=O)[C@H](CCN)NC(=O)[C@H](CCCCN)NC(=O)[C@H](CCN)NC1=O [Example 12] (cyclo(TWI[Dab]K[Dab][Dab]W[Dab][Dab][Cha][Dab][dP]P))	>1 µg/mL	50 µM	2.00 µg/mL (≈ 1.2 µM)	0.75 µg/mL (≈ 0.451 µM)	>2 µg/mL	1.00 µg/mL (≈ 0.601 µM)	0.40 µg/mL (≈ 0.241 µM)	0.7%
CC[C@H](C)[C@@H]1NC(=O)[C@H](Cc2c[nH]c3ccccc23)NC(=O)[C@H]([C@@H](C)O)NC(=O)[C@@H]2CCCN2C(=O)[C@H]2CCCN2C(=O)[C@H](CCN)NC(=O)[C@H](CCC(N)=O)NC(=O)[C@H](CCN)NC(=O)[C@H](CCN)NC(=O)[C@H](Cc2c[nH]c3ccccc23)NC(=O)[C@H](CCN)NC(=O)[C@H](CCN)NC(=O)[C@H](CCCCN)NC(=O)[C@H](CCN)NC1=O [Example 13] (cyclo(TWI[Dab]K[Dab][Dab]W[Dab][Dab]Q[Dab][dP]P))	0.40 µg/mL	50 µM	0.40 µg/mL (≈ 0.244 µM)	0.31 µg/mL (≈ 0.189 µM)	0.75 µg/mL (≈ 0.458 µM)	0.30 µg/mL (≈ 0.183 µM)	0.21 µg/mL (≈ 0.128 µM)	0.4%
CC[C@H](C)[C@@H]1NC(=O)[C@H](Cc2c[nH]c3ccccc23)NC(=O)[C@H]([C@@H](C)O)NC(=O)[C@@H]2CCCN2C(=O)[C@H]2CCCN2C(=O)[C@H](CCN)NC(=O)[C@H](CC(=O)O)NC(=O)[C@H](CCN)NC(=O)[C@H](CCN)NC(=O)[C@H](Cc2c[nH]c3ccccc23)NC(=O)[C@H](CCN)NC(=O)[C@H](CCN)NC(=O)[C@H](CCCCN)NC(=O)[C@H](CCN)NC1=O [Example 14] (cyclo(TWI[Dab]K[Dab][Dab]W[Dab][Dab]D[Dab][dP]P))	>1 µg/mL	12 µM	0.31 µg/mL (≈ 0.191 µM)	0.65 µg/mL (≈ 0.4 µM)	>2 µg/mL	0.40 µg/mL (≈ 0.246 µM)	0.21 µg/mL (≈ 0.129 µM)	0.3%
CC[C@H](C)[C@@H]1NC(=O)[C@H](Cc2c[nH]c3ccccc23)NC(=O)[C@H]([C@@H](C)O)NC(=O)[C@@H]2CCCN2C(=O)[C@H]2CCCN2C(=O)[C@H](CCN)NC(=O)[C@H](CCC(=O)O)NC(=O)[C@H](CCN)NC(=O)[C@H](CCN)NC(=O)[C@H](Cc2c[nH]c3ccccc23)NC(=O)[C@H](CCN)NC(=O)[C@H](CCN)NC(=O)[C@H](CCCCN)NC(=O)[C@H](CCN)NC1=O [Example 15] (cyclo(TWI[Dab]K[Dab][Dab]W[Dab][Dab]E[Dab][dP]P))	>1 µg/mL	50 µM	1.25 µg/mL (≈ 0.763 µM)	2.25 µg/mL (≈ 1.37 µM)	>2 µg/mL	2.50 µg/mL (≈ 1.53 µM)	0.50 µg/mL (≈ 0.305 µM)	0.3%
